Data from US20140173780A1, “SOYBEAN TRAN[…] EFFICIENT AND HIGH-[…] PRODUCTION” (DOW AGROSCIENCES LLC, priority 2012, published 2014).

Tested on: un-transformed soybean explants
Assay: Glyphosate dose response study on un-transformed soybean explants in tissue culture media
Type: in vivo, soybean (Glycine max)
Conditions: for Number of Explants at Various Stages of Selection: SE-1 / Number of Explants at Various Stages of Selection: SE-2 / Number of Explants at Various Stages of Selection: SI-2 / Number of Explants at Various Stages of Selection: End of SE-2: 49 explants at CC; for Number of Explants at Various Stages of Selection: End of SE-2: six weeks on selection
Protocol: Initially, a dose response study was completed. To test the effect of glyphosate on the explants, glyphosate was added to media used from the shoot initiation stage and onwards. Glyphosate was tested from the range of 0.025-0.2 mM. Incorporation of glyphosate in tissue culture media within this concentration range has been reported in soybean (Clemente et al., 2000; Hinchee et al., 1996; Martinell et al., 2006; Martinell et al., 1999; Martinell et al., 2002), tobacco (Singer et al., 1985), cotton (Zhao et al., 2006) and wheat (Hu et al., 2003). Five concentrations of glyphosate were tested for culturing of un-transformed soybean explants. The concentrations incorporated into the SI-2 media were 0.025 mM, 0.05 mM, 0.075 mM, 0.1 mM and 0.2 mM. The un-transformed soybean explants were maintained on the same rate of glyphosate selection for all the successive stages of subculture from SI-2 media to the completion of the tissue culturing protocol. The numbers of healthy explants were counted at each subculture stage. Dead explants were discarded and healthy explants were subcultured further onto appropriate media.
Growth of the explants was also retarded on glyphosate containing media. Next the cotyledons were removed and the explants were subcultured from SI-2 to SE media. At the end of another two weeks of selection on SE media, significant differences in the growth of the explants were observed when the explants were exposed to different levels of glyphosate. The retarded growth of the explants was proportionate to the increasing dose of glyphosate. Similarly the number of dead explants was also proportional to the increasing dose of glyphosate. The number of dead explants increased as the dose of glyphosate was increased. […] Subsequently, three different concentrations of glyphosate (e.g., 0.025 mM, 0.05 mM and 0.1 mM) were incorporated into the selection schemes for Agrobacterium-mediated transformation of the soybean split-seed explants comprising a portion of an embryonic axis.

[1] = 0.025 mM glyphosate in media from SI-2 onwards
[2] = 0.05 mM glyphosate in media from SI-2 onwards
[3] = 0.075 mM glyphosate in media from SI-2 onwards
[4] = 0.1 mM glyphosate in media from SI-2 onwards
[5] = 0.2 mM glyphosate in media from SI-2 onwards

## O=C(O)CNCP(=O)(O)O [Glyphosate, glyphosate]
[1]
  Number of Explants at Various Stages of Selection: SE-1: 41
  Number of Explants at Various Stages of Selection: SE-2: 38
  Number of Explants at Various Stages of Selection: SI-2: 43
  Number of Explants at Various Stages of Selection: End of SE-2: none of the soybean explants were able to survive
[2]
  Number of Explants at Various Stages of Selection: SE-1: 45
  Number of Explants at Various Stages of Selection: SE-2: 38
  Number of Explants at Various Stages of Selection: SI-2: 45
  Number of Explants at Various Stages of Selection: End of SE-2: 0
[3]
  Number of Explants at Various Stages of Selection: SE-1: 45
  Number of Explants at Various Stages of Selection: SE-2: 21
  Number of Explants at Various Stages of Selection: SI-2: 47
  Number of Explants at Various Stages of Selection: End of SE-2: 0
[4]
  Number of Explants at Various Stages of Selection: SE-1: 41
  Number of Explants at Various Stages of Selection: SE-2: 13
  Number of Explants at Various Stages of Selection: SI-2: 44
  Number of Explants at Various Stages of Selection: End of SE-2: 0
[5]
  Number of Explants at Various Stages of Selection: SE-1: 31
  Number of Explants at Various Stages of Selection: SE-2: 1
  Number of Explants at Various Stages of Selection: SI-2: 42
  Number of Explants at Various Stages of Selection: End of SE-2: 0
0.2 mM glyphosate in media from SI-2 onwards, listed as glyphosate
  Number of Explants at Various Stages of Selection: SE-2: only one explants survived
End of culturing on SI-2 media (about 2 weeks), 0.025-0.2 mM glyphosate, extent proportional to dose
  yellowing of the cotyledons: explants showed yellowing of the cotyledons
Glyphosate containing media, 0.025-0.2 mM, proportionate to dose
  growth of the explants: retarded
